Biological target: T1, human CRHR2-alpha (Homo sapiens, UniProt Q13324)
T1 sequence (Q13324 1-411): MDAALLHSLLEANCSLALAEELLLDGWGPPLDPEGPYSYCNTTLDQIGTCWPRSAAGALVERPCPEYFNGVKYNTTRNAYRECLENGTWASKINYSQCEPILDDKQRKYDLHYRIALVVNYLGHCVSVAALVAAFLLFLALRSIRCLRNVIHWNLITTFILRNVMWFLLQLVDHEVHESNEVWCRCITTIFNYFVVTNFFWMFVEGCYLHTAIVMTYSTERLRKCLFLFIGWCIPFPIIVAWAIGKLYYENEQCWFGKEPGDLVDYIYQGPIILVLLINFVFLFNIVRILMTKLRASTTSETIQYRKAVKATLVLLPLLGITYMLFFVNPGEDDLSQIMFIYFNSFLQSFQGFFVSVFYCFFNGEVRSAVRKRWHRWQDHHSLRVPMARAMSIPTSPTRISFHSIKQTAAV
Test: cAMP functional assay for human CRHR2 (LANCE Ultra cAMP, TR-FRET)
Type: cell-based
Conditions: CHO-K1 cells expressing human CRHR2-alpha, agonist human urocortin2 at EC80, cAMP; read-out: IC50 against CRHR2
Summary of the method: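 Antagonism measured in CHO-K1 cells stably expressing the receptor, serum-starved 7 h then cryopreserved. Thawed cells in HBSS buffer with 0.1% BSA, 0.5 mM IBMX, 5 mM Hepes pH 7.4 were preincubated with compound 30 min at 25° C, then stimulated 30 min with EC80 agonist: urocortin2 for CRHR2, CRF for CRHR1.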

Compound | IC50
Cc1ncc(Cl)cc1C(=O)N[C@H]1CC[C@H](Cn2c(=O)n(-c3ccc(C(=O)NC4CC4)nc3)c3ccccc32)CC1 [Example 151, 5-(3-(((1r,4r)-4-(5-chloro-2-methylnicotinamido)cyclo-hexyl)methyl)-2-oxo-2,3-dihydro-1H-benzo[d]imidazol-1-yl)-N-cyclopropyl-picolinamide] | < 300 nM
Cc1ncc(Cl)cc1C(=O)N[C@H]1CC[C@H](Cn2c(=O)n(-c3cnc4c(c3)CCN4)c3ccccc32)CC1 [Example 152, 5-chloro-N-((1r,4r)-4-((3-(2,3-dihydro-1H-pyrrolo[2,3-b]pyridin-5-yl)-2-oxo-2,3-dihydro-1H-benzo[d]imidazol-1-yl)methyl)cyclohexyl)-2-methylnicotinamide] | < 300 nM
Cc1ncc(Cl)cc1C(=O)N[C@H]1CC[C@H](Cn2c(=O)n(-c3ccc4ncoc4c3)c3ccccc32)CC1 [Example 153, N-((1r,4r)-4-((3-(benzo[d]oxazol-6-yl)-2-oxo-2,3-dihydro-1H-benzo[d]imidazol-1-yl)methyl)cyclo-hexyl)-5-chloro-2-methylnicotinamide] | < 300 nM
Cc1ncc(Cl)cc1C(=O)N[C@H]1CC[C@H](Cn2c(=O)n(-c3cnc4c(c3)CCN4C)c3ccccc32)CC1 [Example 154, 5-chloro-2-methyl-N-((1r,4r)-4-((3-(1-methyl-2,3-dihydro-1H-pyrrolo[2,3-b]pyridin-5-yl)-2-oxo-2,3-dihydro-1H-benzo[d]imidazol-1-yl)methyl)cyclohexyl)nicotinamide] | < 300 nM
CC(=O)N1CCc2cc(-n3c(=O)n(C[C@H]4CC[C@H](NC(=O)c5cc(Cl)cnc5C)CC4)c4ccccc43)cnc21 [Example 155, N-((1r,4r)-4-((3-(1-acetyl-2,3-dihydro-1H-pyrrolo[2,3-b]pyridin-5-yl)-2-oxo-2,3-dihydro-1H-benzo[d]imidazol-1-yl)methyl)cyclohexyl)-5-chloro-2-methylnicotinamide] | < 300 nM
Cc1ncc(Cl)cc1C(=O)N[C@H]1CC[C@H](Cn2c(=O)n(-c3cnc4cc[nH]c4c3)c3ccccc32)CC1 [Example 158, 5-chloro-2-methyl-N-((1r,4r)-4-((2-oxo-3-(1H-pyrrolo[3,2-b]pyridin-6-yl)-2,3-dihydro-1H-benzo[d]imidazol-1-yl)methyl)cyclohexyl)nicotinamide] | < 300 nM
Cc1ncc(Cl)cc1C(=O)N[C@H]1CC[C@H](Cn2c(=O)n(-c3cnc4c(c3)OCCN4)c3ccccc32)CC1 [Example 159, 5-chloro-N-((1r,4r)-4-((3-(3,4-dihydro-2H-pyrido[3,2-b][1,4]oxazin-7-yl)-2-oxo-2,3-dihydro-1H-benzo[d]imidazol-1-yl)methyl)cyclohexyl)-2-methylnicotinamide] | < 300 nM
Cc1ncc(Cl)cc1C(=O)N[C@H]1CC[C@H](Cn2c(=O)n(-c3cnc4c(c3)OCCN4C)c3ccccc32)CC1 [Example 160, 5-chloro-2-methyl-N-((1r,4r)-4-((3-(4-methyl-3,4-dihydro-2H-pyrido[3,2-b][1,4]oxazin-7-yl)-2-oxo-2,3-dihydro-1H-benzo [d]imidazol-1-yl)methyl)cyclo-hexyl)nicotinamide] | < 300 nM
Cc1ncc(Cl)cc1C(=O)N[C@H]1CC[C@H](Cn2c(=O)n(-c3ccc(N4CC(N(C)C)C4)nc3)c3ccccc32)CC1 [Example 161, 5-chloro-N-((1r,4r)-4-((3-(6-(3-(dimethylamino)azetidin-1-yl)pyridin-3-yl)-2-oxo-2,3-dihydro-1H-benzo[d]imidazol-1-yl)methyl)cyclohexyl)-2-methylnicotinamide] | < 300 nM
Cc1ncc(Cl)cc1C(=O)N[C@H]1CC[C@H](Cn2c(=O)n(-c3ccc(N4CCC4)nc3)c3ccccc32)CC1 [Example 162, N-((1r,4r)-4-((3-(6-(azetidin-1-yl)pyridin-3-yl)-2-oxo-2,3-dihydro-1H-benzo[d]imidazol-1-yl)methyl)cyclo-hexyl)-5-chloro-2-methyl-nicotinamide] | < 300 nM
Cc1ncc(Cl)cc1C(=O)N[C@H]1CC[C@H](Cn2c(=O)n(-c3cnc4c(cnn4C)c3)c3ccccc32)CC1 [Example 163, 5-chloro-2-methyl-N-((1r,4r)-4-((3-(1-methyl-1H-pyrazolo [3,4-b]pyridin-5-yl)-2-oxo-2,3-dihydro-1H-benzo[d]imidazol-1-yl)methyl)cyclo-hexyl)nicotinamide] | < 300 nM
Cc1ncc(Cl)cc1C(=O)N[C@H]1CC[C@H](Cn2c(=O)n(-c3ccc4c(c3)oc(=O)n4C)c3ccccc32)CC1 [Example 164, 5-chloro-2-methyl-N-((1r,4r)-4-((3-(3-methyl-2-oxo-2,3-dihydrobenzo[d]oxazol-6-yl)-2-oxo-2,3-dihydro-1H-benzo [d]imidazol-1-yl)methyl)cyclo-hexyl)nicotinamide] | < 300 nM
Cc1ncc(Cl)cc1C(=O)N[C@H]1CC[C@H](Cn2c(=O)n(-c3ccc4nccnc4c3)c3ccccc32)CC1 [Example 165, 5-chloro-2-methyl-N-((1r,4r)-4-((2-oxo-3-(quinoxalin-6-yl)-2,3-dihydro-1H-benzo[d]imidazol-1-yl)methyl)cyclo-hexyl)nicotinamide] | < 300 nM
CCn1nc2ccccc2c1C(=O)N[C@H]1CC[C@H](Cn2c(=O)n(-c3ccc(C(=O)NC)nc3)c3ccccc32)CC1 [Example 166, 2-ethyl-N-((1r,4r)-4-((3-(6-(methylcarbamoyl)pyridin-3-yl)-2-oxo-2,3-dihydro-1H-benzo [d]imidazol-1-yl)methyl)cyclo-hexyl)-2H-indazole-3-carboxamide] | < 300 nM
Cc1ncc(Cl)cc1C(=O)N[C@H]1CC[C@H](Cn2c(=O)n(C3COc4ccccc4C3)c3ccccc32)CC1 (stereo partly shown) [Example 167, 5-chloro-N-((1r,4r)-4-((3-(chroman-3-yl)-2-oxo-2,3-dihydro-1H-benzo[d]imidazol-1-yl)methyl)cyclo-hexyl)-2-methylnicotinamide] | < 300 nM
Cc1ncc(Cl)cc1C(=O)N[C@H]1CC[C@H](Cn2c(=O)n(-c3ccc4c(c3)nc(C)n4C)c3ccccc32)CC1 [Example 168, 5-chloro-N-((1r,4r)-4-((1′,2′-dimethyl-2-oxo-1′H-[1,5′-bibenzo[d]imidazol]-3(2H)-yl)methyl)cyclohexyl)-2-methylnicotinamide] | < 300 nM
Cc1ncc(Cl)cc1C(=O)N[C@H]1CC[C@H](Cn2c(=O)n(-c3ccc4c(c3)n(C)c(=O)n4C)c3ccccc32)CC1 [Example 169, 5-chloro-N-((1r,4r)-4-((1′,3′-dimethyl-2,2′-dioxo-2′,3′-dihydro-1′H-[1,5′-bibenzo [d]imidazol]-3(2H)-yl)methyl)cyclohexyl)-2-methylnicotinamide] | < 300 nM
Cc1ncc(Cl)cc1C(=O)N[C@H]1CC[C@H](Cn2c(=O)n(-c3ccc4[nH]nc(C)c4c3)c3ccccc32)CC1 [Example 170, 5-chloro-2-methyl-N-((1r,4r)-4-((3-(3-methyl-1H-indazol-5-yl)-2-oxo-2,3-dihydro-1H-benzo[d]imidazol-1-yl)methyl)cyclohexyl)nicotinamide] | < 300 nM
Cc1ncc(Cl)cc1C(=O)N[C@H]1CC[C@H](Cn2c(=O)n(-c3ccc4c(C)noc4c3)c3ccccc32)CC1 [Example 171, 5-chloro-2-methyl-N-((1r,4r)-4-((3-(3-methylbenzo[d]isoxazol-6-yl)-2-oxo-2,3-dihydro-1H-benzo[d]imidazol-1-yl)methyl)cyclo-hexyl)nicotinamide] | < 300 nM
